Key:
Test in all cases: KINOMEscan
Type in all cases: binding
[1] = molecular target: PCTK2 (Homo sapiens (Human), UniProt Q00537); conditions: read-out: percent control
From the text: (§1) Example 2. In Vitro Kinase Selectivity Profiling of the Compounds of the Present Disclosure

[2] = molecular target: CDC2L1 (Homo sapiens (Human), UniProt P21127); conditions: read-out: percent control
From the text: as §1

[3] = molecular target: PIK3CA(Q546K) (Homo sapiens (Human), UniProt P42336, Q546K); conditions: read-out: percent control
From the text: as §1

[4] = molecular target: ZAK (Homo sapiens (Human), UniProt Q9NYL2); conditions: read-out: percent control
From the text: as §1

[5] = molecular target: DAPK2 (Homo sapiens (Human), UniProt Q9UIK4); conditions: read-out: percent control
From the text: as §1

[6] = molecular target: CAMK2A (Homo sapiens (Human), UniProt Q9UQM7); conditions: read-out: percent control
Sequence of CAMK2A (Q9UQM7 whole entry): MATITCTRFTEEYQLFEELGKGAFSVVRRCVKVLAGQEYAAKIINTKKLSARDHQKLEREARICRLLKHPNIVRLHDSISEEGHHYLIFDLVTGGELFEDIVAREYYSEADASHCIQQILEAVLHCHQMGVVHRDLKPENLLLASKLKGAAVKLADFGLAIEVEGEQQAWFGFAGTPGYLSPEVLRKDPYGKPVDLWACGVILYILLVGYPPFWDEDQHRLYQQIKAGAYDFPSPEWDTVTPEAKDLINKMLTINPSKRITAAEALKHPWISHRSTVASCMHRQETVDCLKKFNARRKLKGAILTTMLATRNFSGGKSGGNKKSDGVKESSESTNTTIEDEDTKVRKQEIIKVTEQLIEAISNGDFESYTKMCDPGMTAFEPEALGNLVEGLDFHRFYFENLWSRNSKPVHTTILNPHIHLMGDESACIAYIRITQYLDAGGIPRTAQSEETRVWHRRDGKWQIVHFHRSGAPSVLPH
From the text: as §1

[7] = molecular target: ULK3 (Homo sapiens (Human), UniProt Q6PHR2); conditions: read-out: percent control
From the text: as §1

[8] = molecular target: ABL1-nonphosphorylated (Homo sapiens (Human), UniProt P00519); conditions: read-out: percent control
From the text: as §1

[9] = molecular target: MYO3A (Homo sapiens (Human), UniProt Q8NEV4); conditions: read-out: percent control
From the text: as §1

[10] = molecular target: IKK-epsilon (Homo sapiens (Human), UniProt Q14164); conditions: read-out: percent control
Sequence of IKK-epsilon (Q14164 whole entry): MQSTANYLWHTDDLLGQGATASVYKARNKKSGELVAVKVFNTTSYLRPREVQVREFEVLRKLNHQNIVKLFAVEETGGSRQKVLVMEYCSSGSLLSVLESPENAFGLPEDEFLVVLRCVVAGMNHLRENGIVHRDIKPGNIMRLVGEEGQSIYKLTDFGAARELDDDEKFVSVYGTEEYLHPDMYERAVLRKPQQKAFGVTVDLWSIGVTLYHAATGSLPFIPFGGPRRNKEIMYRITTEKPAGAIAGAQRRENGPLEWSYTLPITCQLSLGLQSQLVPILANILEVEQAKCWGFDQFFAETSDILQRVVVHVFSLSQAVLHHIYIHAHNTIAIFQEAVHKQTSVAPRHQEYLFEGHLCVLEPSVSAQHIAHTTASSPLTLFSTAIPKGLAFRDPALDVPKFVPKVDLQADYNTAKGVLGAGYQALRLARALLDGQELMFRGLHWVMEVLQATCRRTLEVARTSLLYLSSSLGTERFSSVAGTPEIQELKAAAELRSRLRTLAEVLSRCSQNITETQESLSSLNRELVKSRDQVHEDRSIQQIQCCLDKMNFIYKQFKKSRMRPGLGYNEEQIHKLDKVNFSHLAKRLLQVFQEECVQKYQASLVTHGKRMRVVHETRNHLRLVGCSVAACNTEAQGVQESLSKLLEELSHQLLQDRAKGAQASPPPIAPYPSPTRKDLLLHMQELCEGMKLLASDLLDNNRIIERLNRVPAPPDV
From the text: as §1

[11] = molecular target: RIOK2 (Homo sapiens (Human), UniProt Q9BVS4); conditions: read-out: percent control
From the text: as §1

[12] = molecular target: ADCK4 (Homo sapiens (Human), UniProt Q96D53); conditions: read-out: percent control
Sequence of ADCK4 (Q96D53 whole entry): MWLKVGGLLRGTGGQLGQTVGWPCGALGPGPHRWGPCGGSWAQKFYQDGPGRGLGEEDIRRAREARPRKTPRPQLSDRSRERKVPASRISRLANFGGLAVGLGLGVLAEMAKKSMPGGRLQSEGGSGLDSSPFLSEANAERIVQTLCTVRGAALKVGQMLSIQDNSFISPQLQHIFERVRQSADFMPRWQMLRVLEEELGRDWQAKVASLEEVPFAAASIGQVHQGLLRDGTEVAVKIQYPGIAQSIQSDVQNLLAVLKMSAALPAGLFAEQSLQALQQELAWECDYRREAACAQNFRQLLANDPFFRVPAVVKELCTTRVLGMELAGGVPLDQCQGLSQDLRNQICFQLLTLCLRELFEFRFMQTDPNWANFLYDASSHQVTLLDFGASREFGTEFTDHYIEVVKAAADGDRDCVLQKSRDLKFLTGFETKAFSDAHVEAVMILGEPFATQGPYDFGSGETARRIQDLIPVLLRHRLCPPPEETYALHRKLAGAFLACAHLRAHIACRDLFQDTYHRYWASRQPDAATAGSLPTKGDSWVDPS
From the text: as §1

[13] = molecular target: MAST1 (Homo sapiens (Human), UniProt Q9Y2H9); conditions: read-out: percent control
From the text: as §1

[14] = molecular target: ERK3 (Homo sapiens (Human), UniProt Q16659); conditions: read-out: percent control
Sequence of ERK3 (Q16659 whole entry): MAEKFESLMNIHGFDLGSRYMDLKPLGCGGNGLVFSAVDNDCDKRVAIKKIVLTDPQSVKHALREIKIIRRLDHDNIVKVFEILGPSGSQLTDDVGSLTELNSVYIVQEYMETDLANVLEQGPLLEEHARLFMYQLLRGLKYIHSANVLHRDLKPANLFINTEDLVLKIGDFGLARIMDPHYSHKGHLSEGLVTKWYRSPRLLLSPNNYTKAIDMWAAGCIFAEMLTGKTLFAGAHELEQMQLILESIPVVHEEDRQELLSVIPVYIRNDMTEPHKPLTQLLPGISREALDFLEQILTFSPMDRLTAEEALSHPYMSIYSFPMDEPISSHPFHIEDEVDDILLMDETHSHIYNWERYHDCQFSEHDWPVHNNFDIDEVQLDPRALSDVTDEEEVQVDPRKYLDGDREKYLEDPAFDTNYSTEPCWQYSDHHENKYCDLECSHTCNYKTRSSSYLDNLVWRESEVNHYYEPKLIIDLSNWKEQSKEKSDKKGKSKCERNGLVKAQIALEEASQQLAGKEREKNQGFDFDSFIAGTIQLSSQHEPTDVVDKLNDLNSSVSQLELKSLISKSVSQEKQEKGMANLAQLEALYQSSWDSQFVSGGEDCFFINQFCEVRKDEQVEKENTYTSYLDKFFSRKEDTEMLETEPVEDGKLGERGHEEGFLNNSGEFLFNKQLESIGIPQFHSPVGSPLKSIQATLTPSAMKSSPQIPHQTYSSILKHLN
From the text: as §1

[15] = molecular target: TXK (Homo sapiens (Human), UniProt P42681); conditions: read-out: percent control
From the text: as §1

[16] = molecular target: FGFR3 (Homo sapiens (Human), UniProt P22607); conditions: read-out: percent control
From the text: as §1

[17] = molecular target: SRMS (Homo sapiens (Human), UniProt Q9H3Y6); conditions: read-out: percent control
Sequence of SRMS (Q9H3Y6 whole entry): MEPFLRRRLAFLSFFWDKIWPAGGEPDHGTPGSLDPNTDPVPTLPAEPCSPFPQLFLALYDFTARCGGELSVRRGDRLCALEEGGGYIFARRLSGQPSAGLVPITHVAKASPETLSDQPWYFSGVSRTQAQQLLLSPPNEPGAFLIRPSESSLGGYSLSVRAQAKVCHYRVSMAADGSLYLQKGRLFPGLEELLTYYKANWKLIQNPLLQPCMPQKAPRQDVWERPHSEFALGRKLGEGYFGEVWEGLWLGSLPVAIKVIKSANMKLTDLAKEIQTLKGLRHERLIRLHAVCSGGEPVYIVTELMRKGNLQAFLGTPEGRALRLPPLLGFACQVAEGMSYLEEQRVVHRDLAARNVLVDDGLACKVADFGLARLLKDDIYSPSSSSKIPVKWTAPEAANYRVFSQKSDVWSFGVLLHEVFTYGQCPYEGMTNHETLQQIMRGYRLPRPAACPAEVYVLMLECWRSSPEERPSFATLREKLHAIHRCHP
From the text: as §1

[18] = molecular target: MAPKAPK5 (Homo sapiens (Human), UniProt Q8IW41); conditions: read-out: percent control
From the text: as §1

[19] = molecular target: MAP4K3 (Homo sapiens (Human), UniProt Q8IVH8); conditions: read-out: percent control
From the text: as §1

[20] = molecular target: BRSK2 (Homo sapiens (Human), UniProt Q8IWQ3); conditions: read-out: percent control
From the text: as §1

[21] = molecular target: TYK2(JH2domain-pseudokinase) (Homo sapiens (Human), UniProt P29597); conditions: read-out: percent control
From the text: as §1

[22] = tested on: FLT3(ITD, D835V); conditions: 1 μM
From the text: as §1

[23] = molecular target: TNIK (Homo sapiens (Human), UniProt Q9UKE5); conditions: read-out: percent control
From the text: as §1

[24] = molecular target: BLK (Homo sapiens (Human), UniProt P51451); conditions: read-out: percent control
From the text: as §1

[25] = molecular target: BIKE (Homo sapiens (Human), UniProt Q9NSY1); conditions: read-out: percent control
Sequence of BIKE (Q9NSY1 whole entry): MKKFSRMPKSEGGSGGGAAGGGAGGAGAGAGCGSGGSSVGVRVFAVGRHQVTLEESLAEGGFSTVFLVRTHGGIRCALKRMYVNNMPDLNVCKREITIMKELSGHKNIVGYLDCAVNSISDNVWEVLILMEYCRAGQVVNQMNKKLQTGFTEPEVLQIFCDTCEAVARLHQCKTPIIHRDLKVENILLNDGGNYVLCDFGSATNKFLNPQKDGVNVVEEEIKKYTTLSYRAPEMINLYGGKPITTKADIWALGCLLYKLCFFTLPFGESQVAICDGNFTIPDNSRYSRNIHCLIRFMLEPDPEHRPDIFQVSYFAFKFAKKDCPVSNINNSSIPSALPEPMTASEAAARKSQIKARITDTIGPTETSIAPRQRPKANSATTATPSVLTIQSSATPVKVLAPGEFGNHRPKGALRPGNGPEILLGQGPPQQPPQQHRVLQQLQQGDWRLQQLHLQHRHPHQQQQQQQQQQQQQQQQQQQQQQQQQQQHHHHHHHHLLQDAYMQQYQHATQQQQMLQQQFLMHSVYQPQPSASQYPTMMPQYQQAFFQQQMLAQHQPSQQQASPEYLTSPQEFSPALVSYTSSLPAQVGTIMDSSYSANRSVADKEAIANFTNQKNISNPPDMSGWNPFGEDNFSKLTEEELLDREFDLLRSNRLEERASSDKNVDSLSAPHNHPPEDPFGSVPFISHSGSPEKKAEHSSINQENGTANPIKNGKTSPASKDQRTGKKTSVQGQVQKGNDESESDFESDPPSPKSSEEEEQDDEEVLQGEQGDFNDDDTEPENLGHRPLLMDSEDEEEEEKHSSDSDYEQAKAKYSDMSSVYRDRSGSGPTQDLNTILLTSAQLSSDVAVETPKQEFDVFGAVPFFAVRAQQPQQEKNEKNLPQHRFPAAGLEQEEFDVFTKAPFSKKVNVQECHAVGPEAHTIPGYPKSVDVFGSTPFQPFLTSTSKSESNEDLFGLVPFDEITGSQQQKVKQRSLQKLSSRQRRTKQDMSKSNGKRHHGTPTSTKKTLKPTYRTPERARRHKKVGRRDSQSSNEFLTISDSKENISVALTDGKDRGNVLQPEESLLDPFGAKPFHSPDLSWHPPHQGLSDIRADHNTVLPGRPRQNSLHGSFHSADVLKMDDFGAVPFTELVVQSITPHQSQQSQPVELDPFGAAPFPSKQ
From the text: as §1

[26] = molecular target: SGK3 (Homo sapiens (Human), UniProt Q96BR1); conditions: read-out: percent control
From the text: as §1

[27] = molecular target: ERK1 (Homo sapiens (Human), UniProt P27361); conditions: read-out: percent control
From the text: as §1

[28] = molecular target: NLK (Homo sapiens (Human), UniProt Q9UBE8); conditions: read-out: percent control
From the text: as §1

[29] = molecular target: NEK5 (Homo sapiens (Human), UniProt Q6P3R8); conditions: read-out: percent control
From the text: as §1

[30] = molecular target: LIMK2 (Homo sapiens (Human), UniProt P53671); conditions: read-out: percent control
From the text: as §1

[31] = molecular target: PKN2 (Homo sapiens (Human), UniProt Q16513); conditions: read-out: percent control
From the text: as §1

[32] = molecular target: DRAK1 (Homo sapiens (Human), UniProt Q9UEE5); conditions: read-out: percent control
From the text: as §1

[33] = molecular target: PAK4 (Homo sapiens (Human), UniProt O96013); conditions: read-out: percent control
From the text: as §1

[34] = molecular target: PRKD1 (Homo sapiens (Human), UniProt Q15139); conditions: read-out: percent control
Sequence of PRKD1 (Q15139 whole entry): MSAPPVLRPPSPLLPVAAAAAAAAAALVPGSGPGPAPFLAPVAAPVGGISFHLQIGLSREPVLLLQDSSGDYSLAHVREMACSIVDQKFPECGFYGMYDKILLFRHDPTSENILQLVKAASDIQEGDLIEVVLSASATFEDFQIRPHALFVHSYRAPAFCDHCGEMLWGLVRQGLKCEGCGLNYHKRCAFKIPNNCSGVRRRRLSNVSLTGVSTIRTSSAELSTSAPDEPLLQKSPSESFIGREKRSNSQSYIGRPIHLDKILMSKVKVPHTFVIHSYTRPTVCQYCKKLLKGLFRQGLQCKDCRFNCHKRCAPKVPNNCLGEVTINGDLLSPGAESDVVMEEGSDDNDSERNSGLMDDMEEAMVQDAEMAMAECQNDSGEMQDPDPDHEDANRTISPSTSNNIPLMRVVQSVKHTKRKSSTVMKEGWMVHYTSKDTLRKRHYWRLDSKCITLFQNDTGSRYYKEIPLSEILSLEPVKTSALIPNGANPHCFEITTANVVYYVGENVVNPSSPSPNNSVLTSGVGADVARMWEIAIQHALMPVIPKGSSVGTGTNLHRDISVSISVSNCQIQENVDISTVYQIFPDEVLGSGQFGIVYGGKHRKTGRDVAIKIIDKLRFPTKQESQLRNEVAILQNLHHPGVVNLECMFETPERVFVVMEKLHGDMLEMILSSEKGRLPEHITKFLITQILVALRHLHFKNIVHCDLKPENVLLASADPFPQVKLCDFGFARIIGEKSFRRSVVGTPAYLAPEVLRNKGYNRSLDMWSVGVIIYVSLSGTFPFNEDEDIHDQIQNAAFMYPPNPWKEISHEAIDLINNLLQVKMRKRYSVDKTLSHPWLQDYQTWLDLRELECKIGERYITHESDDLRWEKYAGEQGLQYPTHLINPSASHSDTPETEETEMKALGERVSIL
From the text: as §1

[35] = molecular target: CAMK2B (Homo sapiens (Human), UniProt Q13554); conditions: read-out: percent control
From the text: as §1

[36] = molecular target: CSNK1A1L (Homo sapiens (Human), UniProt Q8N752); conditions: read-out: percent control
From the text: as §1

[37] = molecular target: ABL1(H396P)-nonphosphorylated (Homo sapiens (Human), UniProt P00519, H396P); conditions: read-out: percent control
From the text: as §1

[38] = molecular target: PAK6 (Homo sapiens (Human), UniProt Q9NQU5); conditions: read-out: percent control
From the text: as §1

[39] = molecular target: EPHB3 (Homo sapiens (Human), UniProt P54753); conditions: read-out: percent control
From the text: as §1

[40] = molecular target: MYO3B (Homo sapiens (Human), UniProt Q8WXR4); conditions: read-out: percent control
From the text: as §1

[41] = molecular target: EPHA1 (Homo sapiens (Human), UniProt P21709); conditions: read-out: percent control
From the text: as §1

CCN1CCN(Cc2ccc(Nc3nc4ccc(Oc5ccnc(NC(C)=O)c5)cc4n3C)cc2C(F)(F)F)CC1 [Compound I-2]
remaining binding at 1 µM [1]: 91% | remaining binding at 1 µM [2]: 0.1% | remaining binding at 1 µM [3]: 100% | remaining binding at 1 µM [4]: 25% | remaining binding at 1 µM [5]: 79% | remaining binding at 1 µM [6]: 79% | remaining binding at 1 µM [7]: 92% | remaining binding at 1 µM [8]: 0.3% | remaining binding at 1 µM [9]: 96% | remaining binding at 1 µM [10]: 91% | remaining binding at 1 µM [11]: 51% | remaining binding at 1 µM [12]: 84% | remaining binding at 1 µM [13]: 74% | remaining binding at 1 µM [14]: 94% | remaining binding at 1 µM [15]: 100% | remaining binding at 1 µM [16]: 97% | remaining binding at 1 µM [17]: 67% | remaining binding at 1 µM [18]: 99% | remaining binding at 1 µM [19]: 71% | remaining binding at 1 µM [20]: 100% | remaining binding at 1 µM [21]: 100% | percent control [22]: 100% | remaining binding at 1 µM [23]: 53% | remaining binding at 1 µM [24]: 49% | remaining binding at 1 µM [25]: 88% | remaining binding at 1 µM [26]: 93% | remaining binding at 1 µM [27]: 100% | remaining binding at 1 µM [28]: 84% | remaining binding at 1 µM [29]: 38% | remaining binding at 1 µM [30]: 100% | remaining binding at 1 µM [31]: 100% | remaining binding at 1 µM [32]: 100% | remaining binding at 1 µM [33]: 94% | remaining binding at 1 µM [34]: 99% | remaining binding at 1 µM [35]: 92% | remaining binding at 1 µM [36]: 86% | remaining binding at 1 µM [37]: 0.05% | remaining binding at 1 µM [38]: 93% | remaining binding at 1 µM [39]: 96% | remaining binding at 1 µM [40]: 87% | remaining binding at 1 µM [41]: 100%

CCN1CCN(Cc2ccc(Nc3nc4ccc(Oc5ccnc(NC(C)=O)c5)c(C)c4n3C)cc2C(F)(F)F)CC1 [Compound I-6, N-(4-(2-(4-((4-ethylpiperazin-1-yl)methyl)-3-(trifluoromethyl)phenylamino)-1,7-dimethyl-1H-benzo[d]imidazol-6-yloxy)pyridin-2-yl)acetamide]
remaining binding at 1 µM [1]: 35% | remaining binding at 1 µM [2]: 0% | remaining binding at 1 µM [3]: 75% | remaining binding at 1 µM [4]: 5.6% | remaining binding at 1 µM [5]: 99% | remaining binding at 1 µM [6]: 100% | remaining binding at 1 µM [7]: 79% | remaining binding at 1 µM [8]: 0.05% | remaining binding at 1 µM [9]: 99% | remaining binding at 1 µM [10]: 92% | remaining binding at 1 µM [11]: 96% | remaining binding at 1 µM [12]: 78% | remaining binding at 1 µM [13]: 100% | remaining binding at 1 µM [14]: 94% | remaining binding at 1 µM [15]: 84% | remaining binding at 1 µM [16]: 97% | remaining binding at 1 µM [17]: 38% | remaining binding at 1 µM [18]: 83% | remaining binding at 1 µM [19]: 74% | remaining binding at 1 µM [20]: 74% | remaining binding at 1 µM [21]: 76% | percent control [22]: 61% | remaining binding at 1 µM [23]: 75% | remaining binding at 1 µM [24]: 17% | remaining binding at 1 µM [25]: 96% | remaining binding at 1 µM [26]: 100% | remaining binding at 1 µM [27]: 100% | remaining binding at 1 µM [28]: 40% | remaining binding at 1 µM [29]: 6.7% | remaining binding at 1 µM [30]: 88% | remaining binding at 1 µM [31]: 93% | remaining binding at 1 µM [32]: 99% | remaining binding at 1 µM [33]: 97% | remaining binding at 1 µM [34]: 95% | remaining binding at 1 µM [35]: 94% | remaining binding at 1 µM [36]: 100% | remaining binding at 1 µM [37]: 1.1% | remaining binding at 1 µM [38]: 90% | remaining binding at 1 µM [39]: 100% | remaining binding at 1 µM [40]: 89% | remaining binding at 1 µM [41]: 46%
